Laboratory results published in patent US20210214303A1, “SCORPION VENOM BENZOQUINONE DERIVATIVES AND USES THEREOF” (priority 2018, published 2021).
Converted amounts (≈) assume the structure as drawn. “Also recorded” adds a separate entry of the source.

Experiments:
[1] = system: Mycobacterium tuberculosis multi-drug resistant (MDR) strain; assay: microbe, parasite or virus in culture; type: cell-based
[2] = system: Mycobacterium tuberculosis Multi-Drug-Resistance (MDR) CIBIN99 strain; assay: experimental model of progressive pulmonary tuberculosis; set-up: species or system BALB/c mice; details: mouse, in vivo

Structure (SMILES)	MIC [1]	condition of infected mice / overall effect [2]	reduction of pneumonia (automated histomorphometry, lung surface affected by pneumonia) [2]	tissue damage (pneumonia), histology [2]
COC1=CC(=O)C(SC)=C(SC)C1=O [blue 1,4 benzoquinone, 5-methoxy-2,3-bis(methylthio)cyclohexa-2,5-diene-1,4-dione]	4 µg/mL (≈ 17.4 µM)	effective in vivo; also recorded: improvement by not losing weight and not showing piloerection; also recorded: marked improvement in their condition	50%	less pneumonia; also recorded: clear decrease in tissue damage; also recorded: twofold decrease
COC1=CC(=O)C(SC)=C(OC)C1=O [red 1,4 benzoquinone, 3,5-dimethoxy-2-(methylthio)cyclohexa-2,5-diene-1,4-dione]	> 160 µg/mL			
